Test results as given in US20250171452A1 (Viscient Bio, Inc., priority 2022, published 2025).
Counter-ions that a name gives are not always drawn.

What follows are compounds tested against IDO2 (Homo sapiens (Human), UniProt Q6ZQW0) (assay: Cellular IDO2 assay, doxycycline and 5-methoxy-L-tryptophan medium, colorimetric). Conditions: cellular level, 72 h incubation, signal at 480 nm.
Format: cell-based

Chain of IDO2 (Q6ZQW0 whole entry, species assumed): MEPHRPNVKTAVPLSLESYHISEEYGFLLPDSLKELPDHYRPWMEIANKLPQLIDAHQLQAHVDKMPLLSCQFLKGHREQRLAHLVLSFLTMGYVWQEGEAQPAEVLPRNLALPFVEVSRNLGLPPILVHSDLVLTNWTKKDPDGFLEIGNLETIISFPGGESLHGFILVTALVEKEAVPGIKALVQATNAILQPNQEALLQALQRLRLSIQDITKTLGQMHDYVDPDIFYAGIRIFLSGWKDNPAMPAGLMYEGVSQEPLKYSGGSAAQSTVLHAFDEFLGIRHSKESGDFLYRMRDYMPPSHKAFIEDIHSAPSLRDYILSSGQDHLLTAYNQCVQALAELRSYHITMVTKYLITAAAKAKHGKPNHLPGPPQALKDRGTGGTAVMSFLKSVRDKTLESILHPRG

Row | Compound | IC50 [nM]
1 | 3-bromo-8-nitroindolo[2,1-b]quinazoline-6,12-dione [Compound 65] | 50 to 500
2 | CON=C1c2cc(F)ccc2-n2c1nc1c(Nc3ccc(F)cc3)cccc1c2=O (stereo in doubt) [Compound 122, (Z)-8-Fluoro-4-((4-fluorophenyl)amino)-6-(methoxyimino)indolo[2,1-b]quinazolin-12(6H)-one] | > 500
3 | Cc1ccc2nc3n(c(=O)c2c1)-c1ccc([N+](=O)[O-])cc1C3=O [Compound 52, 2-Methyl-8-nitroindolo[2,1-b]quinazoline-6,12-dione] | < 50
4 | O=C1c2cc([N+](=O)[O-])ccc2-n2c1nc1ccc(F)cc1c2=O [Compound 54, 2-Fluoro-8-nitroindolo[2,1-b]quinazoline-6,12-dione] | < 50
5 | O=C1c2cc([N+](=O)[O-])ccc2-n2c1nc1cccc(Br)c1c2=O [Compound 55, 1-Bromo-8-nitroindolo[2,1-b]quinazoline-6,12-dione] | > 500
6 | O=C1c2cc([N+](=O)[O-])ccc2-n2c1nc1cc(Cl)cc(Cl)c1c2=O [Compound 56, 1,3-Dichloro-8-nitroindolo[2,1-b]quinazoline-6,12-dione] | 50 to 500
7 | O=C1c2cc([N+](=O)[O-])ccc2-n2c1nc1cnccc1c2=O [Compound 57, 9-Nitropyrido[3′,4′:4,5]pyrimido[1,2-a]indole-5,11-dione] | < 50
8 | COc1cc2c(=O)n3c(nc2cn1)C(=O)c1cc([N+](=O)[O-])ccc1-3 [Compound 58, 3-Methoxy-9-nitropyrido[3′,4′:4,5]pyrimido[1,2-a]indole-5,11-dione] | 50 to 500
9 | O=C1c2c(ccc(F)c2F)-n2c1nc1ccccc1c2=O [Compound 60, 7,8-Difluoroindolo[2,1-b]quinazoline-6,12-dione] | < 50
10 | NCCNC(=O)c1ccc2c(c1)/C(=N\O)c1nc3cc(Cl)ccc3c(=O)n1-2 [Compound 61] | > 500
11 | CO/N=C1\c2cc(F)ccc2-n2c1nc1cc(CN3CCN(C)CC3)ccc1c2=O [Compound 74] | > 500
12 | NS(=O)(=O)c1ccc2c(c1)C(=O)c1nc3cc(Cl)ccc3c(=O)n1-2 [Compound 75] | 50 to 500
13 | CC(C)(C)OC(=O)NCCNC(=O)c1ccc2c(c1)C(=O)c1nc3cc(Cl)ccc3c(=O)n1-2 [Compound 77] | 50 to 500
14 | O=C1c2cc(SCc3ccccc3)ccc2-n2c1nc1cc(Cl)ccc1c2=O [Compound 78] | 50 to 500
15 | NC(=O)c1ccc2c(c1)Cc1nc3cc(F)ccc3c(=O)n1-2 [Compound 80] | 50 to 500
16 | CS(=O)(=O)c1ccc2c(c1)Cc1nc3cc(F)ccc3c(=O)n1-2 [Compound 85] | 50 to 500
17 | CS(=O)(=O)Nc1ccc2c(c1)C(=O)c1nc3cc(Cl)cc(Cl)c3c(=O)n1-2 [Compound 86] | 50 to 500
18 | O=C1c2cc(F)ccc2-n2c1nc1cc(-c3c[nH]cn3)ccc1c2=O [Compound 89, 8-fluoro-3-(1H-imidazol-4-yl)indolo[2,1-b]quinazoline-6,12-dione] | 50 to 500
19 | NCc1ccc2c(=O)n3c(nc2c1)C(=O)c1cc(F)ccc1-3 [Compound 90, 3-(aminomethyl)-8-fluoroindolo[2,1-b]quinazoline-6,12-dione Hydrochloride Salt] | 50 to 500

Further lines, results first:

Row | IC50 [nM] | Compound
20 | < 50 | CON=C1c2cc(F)ccc2-n2c1nc1cc(CNS(C)(=O)=O)ccc1c2=O (stereo in doubt) [Compound 91, (Z)—N-((8-fluoro-6-(methoxyimino)-12-oxo-6,12-dihydroindolo[2,1-b]quinazolin-3-yl)methyl)methanesulfonamide]
21 | 50 to 500 | CON=C1c2cc(F)ccc2-n2c1nc1cc(CNC(=O)OCc3ccccc3)ccc1c2=O (stereo in doubt) [Compound 93, benzyl (Z)-((8-fluoro-6-(methoxyimino)-12-oxo-6,12-dihydroindolo[2,1-b]quinazolin-3-yl)methyl)carbamate]
22 | 50 to 500 | CON=C1c2cc(F)ccc2-n2c1nc1cc(CNC(C)=O)ccc1c2=O (stereo in doubt) [Compound 94, (Z)—N-((8-fluoro-6-(methoxyimino)-12-oxo-6,12-dihydroindolo[2,1-b]quinazolin-3-yl)methyl)acetamide]
23 | < 50 | CON=C1c2cc(C#N)ccc2-n2c1nc1c(Nc3ccc(F)cc3)cccc1c2=O (stereo in doubt) [Compound 118, (Z)-4-((4-Fluorophenyl)amino)-6-(methoxyimino)-12-oxo-6,12-dihydroindolo[2,1-b]quinazoline-8-carbonitrile]
24 | 50 to 500 | O=c1c2cccc(Nc3ccc(F)cc3)c2nc2n1-c1ccc(F)cc1C2=NO (stereo in doubt) [Compound 123, (Z)-8-Fluoro-4-((4-fluorophenyl)amino)-6-(hydroxyimino)indolo[2,1-b]quinazolin-12(6H)-one]
25 | < 50 | O=C1c2cc(C(F)(F)F)ccc2-n2c1nc1ccccc1c2=O [Compound 53, 8-(Trifluoromethyl)indolo[2,1-b]quinazoline-6,12-dione]
26 | 50 to 500 | O=c1c2ccccc2nc2n1-c1ccc([N+](=O)[O-])cc1C2 [Compound 62, 8-Nitroindolo[2,1-b]quinazolin-12(6H)-one]
27 | < 50 | [N-]=[N+]=Nc1ccc2c(c1)C(=O)c1nc3cc(Cl)ccc3c(=O)n1-2 [Compound 66]
28 | 50 to 500 | CS(=O)(=O)c1ccc2c(c1)/C(=N\O)c1nc3cc(F)ccc3c(=O)n1-2 [Compound 67]
29 | 50 to 500 | NCCNC(=O)c1ccc2c(c1)/C(=N\O)c1nc3cc(Cl)ccc3c(=O)n1-2 [Compound 68]
30 | < 50 | [2H]C([2H])(Nc1ccc2c(=O)n3c(nc2c1)C(=O)c1cc(F)ccc1-3)c1ccc(F)cc1 [Compound 69]
31 | < 50 | [2H]C([2H])(Nc1ccc2c(=O)n3c(nc2c1)C(=O)c1cc(C#N)ccc1-3)c1ccc(F)cc1 [Compound 70]
32 | < 50 | N#Cc1ccc2c(c1)C(=O)c1nc3c(Oc4ccc(F)cc4)cccc3c(=O)n1-2 [Compound 71]
33 | < 50 | N#Cc1ccc2c(c1)Cc1nc3cc(F)ccc3c(=O)n1-2 [Compound 72]
34 | 50 to 500 | CC1(CCC(=O)Nc2ccc3c(c2)C(=O)c2nc4cc(Cl)ccc4c(=O)n2-3)N=N1 [Compound 73]
35 | < 50 | O=c1c2ccc(Cl)cc2nc2n1-c1ccc(Br)cc1C2 [Compound 76]
36 | < 50 | CN(C)S(=O)(=O)c1ccc2c(c1)C(=O)c1nc3cc(F)ccc3c(=O)n1-2 [Compound 79]
37 | < 50 | O=C1c2cc(F)ccc2-n2c1nc1cc(NCc3ccc(F)cc3)ccc1c2=O [Compound 81]
38 | < 50 | CNS(=O)(=O)c1ccc2c(c1)C(=O)c1nc3cc(F)ccc3c(=O)n1-2 [Compound 82]
39 | < 50 | O=C1c2cc(F)ccc2-n2c1nc1cc(Nc3ccc(F)cc3)ccc1c2=O [Compound 83]
40 | < 50 | N#Cc1ccc2c(c1)/C(=N\O)c1nc3cc(Cl)ccc3c(=O)n1-2 [Compound 84]
41 | < 50 | CS(=O)(=O)c1ccc2c(c1)C(=O)c1nc3cc(Cl)cc(Cl)c3c(=O)n1-2 [Compound 87]
42 | < 50 | NS(=O)(=O)NCc1ccc2c(=O)n3c(nc2c1)C(=O)c1cc(F)ccc1-3 [Compound 88]
43 | < 50 | CC(C)(C)OC(=O)NCc1ccc2c(=O)n3c(nc2c1)C(=O)c1cc(F)ccc1-3 [Compound 92]
